Test results from patent EP0397424A2, “Multiple analysis system” (Biotrack, Inc., priority 1989, dated 1990).

Test system: red cells
Test: Red cell lysis by detergent-saturated polyethylene reagent pads (completeness of lysis, red cell fragments)
Assay type: cell-based
Parameters: key: + = complete lysis or absence of red cell fragments; - = incomplete lysis or presence of red cell fragments
Conditions: blood passed through reagent pad saturated with detergent solution
Experimental: Centered polyethylene reagent pads were saturated with a detergent solution, and the ability of the pad to provide completely lysed blood not containing any red cell fragments was analyzed. Since this sample is also used in the blood donor cartridge as described above to provide sample that is used in an agglutination reaction, inhibition of the agglutination reaction was also measured. Inhibition of agglutination was done subjectively, with 0 indicating little or no inhibition of agglutination and 5 representing the maximum amount of inhibition (essentially no agglutination under normal agglutinating conditions).
Other combinations of detergents can be determined in the same manner by measuring both red cell lysis and inhibition of agglutination and selecting a combination of detergents that provides the desired complete lysis with a minimum of inhibition.

## mellitin
+ = absence of fragments
  Red Cell Fragments: -
+ = complete lysis
  Incomplete RBC lysis: +
